{"source": "patent US20210054047A1", "about": "“NOVEL ANTICANCER FUSION PROTEIN AND USE THEREOF” (KOREA INSTITUTE OF SCIENCE AND TECHNOLOGY, priority 2018, published 2021)", "key": {"DR5": {"target": "T1, DR5 (Homo sapiens, UniProt O14763)", "T1 construct": "purchased R&D systems 631-T2-100", "T1 sequence (O14763 with tags, fused parts or gaps limits assumed)": "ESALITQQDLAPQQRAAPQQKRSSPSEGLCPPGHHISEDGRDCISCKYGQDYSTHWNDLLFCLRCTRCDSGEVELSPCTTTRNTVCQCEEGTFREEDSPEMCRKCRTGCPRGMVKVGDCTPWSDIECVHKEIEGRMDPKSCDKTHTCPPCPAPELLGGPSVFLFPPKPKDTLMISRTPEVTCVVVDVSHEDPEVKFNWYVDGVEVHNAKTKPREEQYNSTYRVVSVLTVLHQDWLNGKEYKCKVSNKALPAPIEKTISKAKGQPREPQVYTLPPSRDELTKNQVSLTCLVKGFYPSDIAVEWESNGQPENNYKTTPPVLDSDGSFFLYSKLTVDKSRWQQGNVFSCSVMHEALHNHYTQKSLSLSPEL", "assay": "SPR binding to immobilized DR5-Fc", "conditions": "25° C.", "protocol": "Binding experiments of TTPN and mTRAIL to TRAIL receptors DR4 and DR5 were analyzed at 25° C. using a surface plasmon resonance apparatus (SR7500 DC, Reichert Inc., NY, USA). DR4 and DR5-fc chimeric proteins (R&D systems 347-DR-100, 631-T2-100) were immobilized on the surface of the Planar Protein A sensor chip (Reichert, 13206069) and the receptors were coated at a level of 300 to 500 resonance units. SPR kinetic titrations were performed by adding 250 μl of TTPN and mTRAIL with different concentrations in the range of 1.56 to 400 nM and 0.1 to 25.6 μM, respectively, increasing by four times. Each analyte was run at 50 μL/min using running and sample buffer (0.5 M Tris-HCl (pH 7.4), 150 mM NaCl, 0.005% Tween 20), and binding of the ligand to the receptor was performed and monitored in real time. For titration sensorgrams, a simple 1:1 Langmuir interaction model (A+B↔AB) was applied using the data analysis program Scrubber 2.0 (BioLogic Software, Australia, and KaleidaGraph Software, Australia) and CLAMP software.\nThe affinity KD was determined from the formula of KD=kd/ka. Results are based on representative sensorgrams obtained from saturation binding reactions averaged over at least three independent runs of SPR measurements (FIG. 31)."}, "HepG2 tumor [1]": {"tested_on": "HepG2 tumor", "assay": "Antitumor efficacy, HepG2 xenograft", "assay_type": "in vivo, mouse", "excerpt": "(§1) In the evaluation of the anti-tumor effect of the present invention, BALB/c nude male mice (6-7 weeks old) were used as an animal model. Particularly, HT29 cells (5×10^6) and HepG2 cells (5×10^6) were subcutaneously inoculated into the left dorsal flank of BALB/c nude mice, respectively. After a volume of tumors reached ˜80-100 mm^3, mice were randomly divided into the 14 following five treatment groups (6 mice/group); DOX-TTPNs, DOX-FTNs, free DOX, empty TTPNs, and buffer. Mice were intravenously injected five times, once every 2 days, and volume of tumors was determined as 1/2(Length×Width^2). Apoptotic cell death in tumor tissues was analyzed using TUNEL staining (In situ Cell Death Detection kit; Roche), and cells were stained with DAPI (4′,6-diamidino-2-phenylindole), as previously described (Kih et al., Biomaterials 180: 67-77, 2018). Apoptotic cells were visualized under a Nikon Eclipse Ti microscope (Nikon) and quantified as the number of TUNEL-positive cells per total number of cells using ImageJ software. After 21 days from injecting tumor cells, tumor tissues were excised from the experimental mice, and cryo-sections (3.5 μm) were fixed with 10% neutral buffered formalin and paraffin-embedded tissue blocks.\n(§2) In addition, to investigate whether tumor growth inhibition by TTPN is induced by apoptosis-inducing activity on tumor cells, tumor tissues from the treated mice were analyzed. On the 15th day after the first injection, mice were euthanized, and apoptosis of tumor tissues was analyzed using terminal deoxynucleotidyl transferase dUTP nick end labeling (TUNEL) staining."}, "HepG2 cells": {"tested_on": "HepG2 cells", "assay": "Annexin V/PI flow cytometry of apoptosis, HepG2", "assay_type": "cell-based, human", "conditions": "for surviving tumor cells (Annexin V/PI double negative): 24 hours", "protocol": "FIG. 19 is a series of histograms representing flow cytometry analysis of TRAIL-mediated apoptosis of HepG2 cells as an analysis of in vitro TTPN-mediated apoptosis on TRAIL-sensitive-HepG2 cells. Cells were incubated for 24 hours in the presence of different concentrations of mTRAIL and TTPN and analyzed by Annexin V/PI double staining.\nIn addition, to investigate whether apoptosis induced by TTPN is induced by the pro-apoptosis pathway of tumor cells, fluorescence-activated cell sorting (FACS) using double staining of Annexin V/propidium iodide (PI) was performed. […] (FIG. 21)."}, "[2]": {"assay": "Transmission electron microscopy (TEM) size", "assay_type": "physicochemical", "protocol": "TEM analyses of TTPN and wtFTN were imaged by bio transmission electron microscopy (Hitachi). […] The hydrodynamic sizes of TTPN-DOX and TTPN were analyzed by dynamic light scattering (DLS) using a Zetasizer Nano ZS system (Malvern Instruments, Ltd., UK), as previously described (Zidi et al., Med. Oncol. 2010, 27(2): 185-198, 2010)."}, "HepG2 tumor [3]": {"tested_on": "HepG2 tumor", "assay": "TUNEL analysis of HepG2 tumor tissue", "assay_type": "in vivo, mouse", "conditions": "15th day after first injection", "excerpt": "as §1, with “After 21 days from injecting tumor cells, tumor tissues were excised from the experimental mice, and cryo-sections (3.5 μm) were fixed with 10% neutral buffered formalin and paraffin-embedded tissue blocks.” left out\nas §2"}, "[4]": {"tested_on": "TRAIL receptors on the surface of HepG2 cells", "assay": "Cell binding by flow cytometry", "assay_type": "cell-based, human", "protocol": "TRAIL receptor expression was evaluated on various cell surfaces. Specifically, HepG2, HT29, and HEK293T cells (2×10^5) were cultured with four types of anti-human TRAIL receptor antibodies (R&D system, MAB347, MAB6311, MAB6301, MAB633). […] Nanocage bound cells were detected with an Accuri™ C6 flow cytometer (BD Biosciences) and analyzed using FlowJo_V10 software (FlowJo). The binding specificity of TTPN to TRAIL receptor was analyzed by blocking experiments by pre-culture of anti-human TRAIL receptor antibodies and cells at 4° C. for 20 minutes. […] Thereafter, the cells were fixed with 4% paraformaldehyde and stained with Hoechst 33258 before analysis for cell binding detection in a fluorescence microscope (Nikon Eclipse Ti, Nikon). Data were analyzed using LAS AF Lite software (Leica)."}, "[5]": {"tested_on": "cleaved form of caspase-3", "assay": "Western blot of HT29 lysates: cleaved caspase-3", "assay_type": "cell-based, human", "conditions": "HT29, 50 nM, 24 hours", "protocol": "After incubating HT29 cells with 50 nM DOX-TTPNs, DOX-FTNs, free DOX, or buffer for 24 hours, cells were lysed with radioimmunoprecipitation assay (RIPA) buffer (Cell Signaling Technology) and the concentration of proteins was measured using a DC protein assay kit (Bio-Rad). Equal amounts of proteins (30 μg) were resolved by SDS-PAGE and transferred to nitrocellulose membranes. After blocking with 5% skim milk in Tris-buffered saline containing 0.1% Tween-20 (TBST), membranes were incubated first with anti-Cl-PARP, anti-Cl-caspase-6, anti-cFLIP, anti-Bcl-xL, anti-XIAP, anti-Cl-caspase-3, or anti-GAPDH primary antibody (Cell Signaling Technology), and then with anti-mouse or anti-rabbit secondary antibodies (Sigma-Aldrich), as appropriate. Immunoreactive proteins were visualized using enhanced chemiluminescence (ECL) chemical reagents (Bio-Rad) and ChemiDoc (Bio-Rad), and were analyzed using ImageJ software."}, "[6]": {"conditions": "over 1 month (Kih et al.); cited from earlier work"}}}
{"substance": "TTPN: protein nanocage presenting TRAIL as natural-like homo-trimers; TRAIL 95-281 fused by linker peptide to human ferritin heavy chain", "values": [{"measurement": "ka", "setting": "DR5", "value": "6.62 (±4.19) · 10^4 M^−1 · S^−1"}, {"measurement": "kd", "setting": "DR5", "value": "1.49 (±1.13) · 10^−5 s^−1"}, {"measurement": "tumor volume inhibition relative to mTRAIL", "setting": "HepG2 tumor [1]", "value": 3.1, "unit": "times"}, {"measurement": "inhibition of tumor volume", "setting": "HepG2 tumor [1]; i.v. every 2 days, TTPN 23 mg/kg, mTRAIL 12 mg/kg", "value": 80.52, "unit": "%"}, {"measurement": "surviving tumor cells (Annexin V/PI double negative)", "setting": "HepG2 cells; HepG2, 0.4 nM", "value": 83.5, "unit": "%"}, {"measurement": "surviving tumor cells (Annexin V/PI double negative)", "setting": "HepG2 cells; HepG2, 100 nM", "value": 12.0, "unit": "%"}, {"measurement": "concentration at which Annexin V-positive cells were detected", "setting": "HepG2 cells; HepG2, 24 hours (FIG. 20)", "value": 0.4, "unit": "nM"}, {"measurement": "average size (TEM)", "setting": "[2]", "value": "24-28 nm"}, {"measurement": "TUNEL-positive tumor cells", "setting": "HepG2 tumor [3]", "value": 84.4, "unit": "%"}, {"measurement": "binding on the surface of HepG2 cells", "setting": "[4]; 400 nM, 4° C., 20 minutes", "value": "greater effect than wtFTN"}, {"measurement": "binding after pre-incubation with four anti-TRAIL receptor antibodies", "setting": "[4]; HepG2, 400 nM", "value": "reduced"}, {"measurement": "cleaved caspase-3 (and PARP) expression", "setting": "[5]", "value": "little change"}, {"measurement": "stability", "setting": "[6]", "value": "more than 90%"}]}
